Like-named read-outs stand apart in the source and are kept apart here.
What was measured:
[1] = CER-001 as carrier for ophthalmic drugs: appearance of samples after thermal cycling; type: physicochemical
Description: (§1) A solution of CER-001 was mixed with azithromycin to provide a final azithromycin concentration of 10 mg/ml and subjected to five heating and cooling cycles from 37° C. to 55° C. to promote complexation of azithromycin to CER-001. For controls, a sample of CER-001 without added azithromycin and a sample of azithromycin at a concentration of 10 mg/ml in phosphate buffered saline (PBS) were similarly subjected to five heating and cooling cycles from 37° C. to 55° C.
as §1, with “spironolactone” for “azithromycin”, “1.5” for “10”
as §1, with “cyclosporine” for “azithromycin”, “1” for “10”

[2] = tested on: vision impairment related to LCAT deficiency (ocular lipid deposits); assay: CER-001 therapy for LCAT deficiency-related vision impairment; type: in vivo, human
Description: A subject with LCAT deficiency and having vision impairment related to the subject's LCAT deficiency (said vision impairment being due to ocular lipid deposits) was administered CER-001 according to a treatment regimen comprising an induction regimen, a consolidation regimen, and a maintenance regimen.
Prior to treatment with CER-001, the subject had ocular lipid deposits presenting as white corneal ring opacities. The subject had normal visual acuity but visual blur, especially at night. […] Next-generation sequencing confirmed the subject as compound-heterozygous for two LCAT gene variations, but none in the ABCA1 or APOA1 genes. The first allele, motherly inherited, is an exon-5 (c.605T>C) missense mutation p.(Ile202Thr), previously well-established as familial LCAT deficiency (FLD)-causing in Europe. The paternal allele (c.154+5G>C), was novel and absent from general referral population databases. It alters a highly evolutionary-conserved residue of intron-1 donor splice-site, thereby potentially altering exon-1 mRNA-splicing and creating a cryptic acceptor splice-site at position c.154+15. […]
The induction regimen comprised nine doses of CER-001 administered over three weeks. The dose of CER-001 administered in the […] regimen was 10 mg/kg, calculated based upon the amount of ApoA-I in the CER-001 administered and the weight of the subject.
Following the induction regimen, the subject was administered CER-001 according to a consolidation regimen comprising seven doses of CER-001 administered over four weeks. The dose of CER-001 administered in the […] regimen was 10 mg/kg, calculated based upon the amount of ApoA-I in the CER-001 administered and the weight of the subject.
Following the consolidation regimen, the subject was administered CER-001 according to a maintenance regimen comprising once a week administration of CER-001 for three weeks. The dose of CER-001 administered in the maintenance regimen was 10 mg/kg calculated based upon the amount of ApoA-I in the CER-001 to be administered and the weight of the subject. […]

[3] = tested on: eyes of albino rabbits; type: in vivo; settings: for ocular tolerance: albino rabbits, CER-001 8 mg/ml (protein weight basis)
[4] = tested on: endotoxin-induced uveitis (severe inflammation); type: in vivo; settings: albino rabbits
Description: CER-001 vehicle and Solu-Medrol®, an injectable formulation containing the anti-inflammatory glucocorticoid methylprednisolone sodium succinate, were included as controls. Tolerance was assessed by the McDonald-Shadduck scoring system (see, Eaton et al., Journal of Ocular Pharmacology and Therapeutics 33(10):718-734) 6 and 24 hours after administration. Cell infiltration and protein content in the aqueous humor were measured 24 hours after administration.

CC[C@H]1OC(=O)[C@H](C)[C@@H](O[C@H]2C[C@@](C)(OC)[C@@H](O)[C@H](C)O2)[C@H](C)[C@@H](O[C@@H]2O[C@H](C)C[C@H](N(C)C)[C@H]2O)[C@](C)(O)C[C@@H](C)CN(C)[C@H](C)[C@@H](O)[C@]1(C)O [azithromycin, reference compound]
appearance of sample following the heating and cooling cycles ([1]; azithromycin 10 mg/ml in PBS, five cycles 37° C. to 55° C., FIG. 1A): contained numerous crystals in the liquid and on the glass tube

CC(=O)S[C@@H]1CC2=CC(=O)CC[C@]2(C)[C@H]2CC[C@@]3(C)[C@@H](CC[C@@]34CCC(=O)O4)[C@H]12 [spironolactone, reference compound]
appearance of sample following the heating and cooling cycles ([1]; spironolactone 1.5 mg/ml in PBS, five cycles 37° C. to 55° C., FIG. 1B): contained numerous crystals in the liquid, on the glass tube, and above the meniscus

CER-001: lipoprotein complex of ApoA-I and phospholipids, 1:2.7 lipoprotein weight:total phospholipid weight ratio, SM:DPPG weight ratio 97:3
appearance of sample following the heating and cooling cycles ([1]; CER-001 without added drug, five heating and cooling cycles from 37° C. to 55° C.): remained clear | complexation with ophthalmic drugs (summary of Example 1) ([1]; thermal cycling 37° C. to 55° C.): can complex with azithromycin, spironolactone, dexamethasone palmitate, and cyclosporine | visual blur at the end of the follow-up period ([2]; end of 3 months off-treatment follow-up): did not recur | effect of administration on vision ([2]; one subject with LCAT deficiency, IV infusion 10 mg/kg, later 20 mg/kg, 5 months treatment): normalization of vision | subject's vision during treatment ([2]; one subject with LCAT deficiency, IV infusion 10 mg/kg, later 20 mg/kg, induction, consolidation, maintenance, 5 months treatment): improved during the course of treatment | ocular tolerance ([3]; repeated topical administration of up to 8 drops): No tolerance issues were observed | ocular tolerance ([3]; single intravitreal administration): No tolerance issues were observed | ocular tolerance (statement referring to Examples 3 and 4) ([3]; even with repeated administrations): good ocular tolerance | cell infiltration in the aqueous humor ([4]; 24 hours after administration, FIG. 3A): positive effect | protein in the aqueous humor ([4]; 24 hours after administration, FIG. 3B): positive effect | tolerance (McDonald-Shadduck scoring system) ([4]; single intravitreal administration, including 8 mg/ml, 6 and 24 hours, FIGS. 2A-2C): induced significant tolerance

Reference: patent US20240000948A1, “METHODS FOR TREATING EYE DISEASES USING LIPID BINDING PROTEIN-BASED COMPLEXES” (ABIONYX PHARMA SA, priority 2020, published 2024)
